According to PubChem BioAssay (NCI):
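GI50 marks 50% less growth. TGI: total growth inhibition.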

Legend:
Experiment in all cases: inhibition of tumour cell growth, NCI panel, 384-well format
[1] = system: HCC-2998 colon
[2] = system: OVCAR-8 ovarian
[3] = system: MALME-3M melanoma
[4] = system: U251 glioblastoma
[5] = system: OVCAR-5 ovarian
[6] = system: SK-OV-3 ovarian
[7] = system: EKVX NSCLC
[8] = system: KM12 colon
[9] = system: HS 578T breast
[10] = system: NCI-H460 NSCLC
[11] = system: M14 melanoma
[12] = system: OVCAR-3 ovarian
[13] = system: UACC-62 melanoma
[14] = system: SF-539 CNS
[15] = system: DU-145 prostate
[16] = system: SF-268 CNS
[17] = system: ACHN renal
[18] = system: K-562 leukemia
[19] = system: TK-10 renal
[20] = system: NCI/ADR-RES ovarian
[21] = system: NCI-H322M lung
[22] = system: HCT-15 colon
[23] = system: SK-MEL-5 melanoma
[24] = system: LOX IMVI melanoma
[25] = system: SR leukemia
[26] = system: CAKI-1 renal
[27] = system: SF-295 CNS
[28] = system: MOLT-4 leukemia
[29] = system: CCRF-CEM leukemia
[30] = system: HOP-62 NSCLC
[31] = system: 786-0 renal
[32] = system: MDA-MB-435 melanoma
[33] = system: SN12C renal
[34] = system: A498 renal
[35] = system: HT29 colon
[36] = system: PC-3 prostate
[37] = system: MDA-MB-231 breast
[38] = system: OVCAR-4 ovarian
[39] = system: HOP-92 NSCLC
[40] = system: SNB-75 CNS
[41] = system: SNB-19 CNS
[42] = system: MDA-MB-468 breast
[43] = system: UACC-257 melanoma
[44] = system: BT-549 breast
[45] = system: A549 NSCLC
[46] = system: NCI-H226 lung
[47] = system: COLO 205 colon
[48] = system: SW-620 colon
[49] = system: SK-MEL-28 melanoma
[50] = system: T-47D breast
[51] = system: IGROV1 ovarian
[52] = system: NCI-H522 lung
[53] = system: RXF 393 renal
[54] = system: MCF7 breast
[55] = system: NCI-H23 lung

## Nc1ncc(-c2cnn(CCO)c2)c2scc(-c3ccc(NC(=O)Nc4cccc(F)c4)cc3)c12
[1]
  GI50: 1160 nM
  TGI: 2550 nM
[2]
  GI50: 315 nM
  TGI: 2130 nM
[3]
  GI50: 53.5 nM
  TGI: 646 nM
[4]
  GI50: 812 nM
  TGI: 2170 nM
[5]
  GI50: 612 nM
  TGI: 2200 nM
[6]
  GI50: 297 nM
  TGI: 1300 nM
[7]
  GI50: 1030 nM
  TGI: 2980 nM
[8]
  GI50: < 10 nM
  TGI: 1210 nM
[9]
  GI50: 226 nM
  TGI: 943 nM
[10]
  GI50: < 10 nM
  TGI: 1060 nM
[11]
  GI50: 147 nM
  TGI: 1140 nM
[12]
  GI50: 188 nM
  TGI: 2010 nM
[13]
  GI50: 376 nM
  TGI: 1640 nM
[14]
  GI50: 169 nM
  TGI: 1110 nM
[15]
  GI50: 462 nM
  TGI: 2380 nM
[16]
  GI50: 354 nM
  TGI: 1920 nM
[17]
  GI50: 352 nM
  TGI: 1770 nM
[18]
  GI50: 16.7 nM
  TGI: 42.9 nM
[19]
  GI50: 920 nM
  TGI: 3.62 µM
[20]
  GI50: 363 nM
  TGI: 10 µM
[21]
  GI50: 634 nM
  TGI: 2890 nM
[22]
  GI50: 349 nM
  TGI: 1720 nM
[23]
  GI50: 807 nM
  TGI: 2070 nM
[24]
  GI50: 318 nM
  TGI: 1320 nM
[25]
  GI50: < 10 nM
  TGI: < 10 nM
[26]
  GI50: 212 nM
  TGI: 1200 nM
[27]
  GI50: 186 nM
  TGI: 1370 nM
[28]
  GI50: < 10 nM
  TGI: < 10 nM
[29]
  GI50: < 10 nM
  TGI: < 10 nM
[30]
  GI50: 309 nM
  TGI: 1810 nM
[31]
  GI50: 373 nM
  TGI: 1740 nM
[32]
  GI50: 317 nM
  TGI: 1890 nM
[33]
  GI50: 179 nM
  TGI: 555 nM
[34]
  GI50: 312 nM
  TGI: 1720 nM
[35]
  GI50: 507 nM
  TGI: 2640 nM
[36]
  GI50: 1270 nM
  TGI: 3.73 µM
[37]
  GI50: 1010 nM
  TGI: 3.19 µM
[38]
  GI50: 674 nM
  TGI: 2380 nM
[39]
  GI50: 238 nM
  TGI: 1100 nM
[40]
  GI50: 172 nM
  TGI: 740 nM
[41]
  GI50: 836 nM
  TGI: 2550 nM
[42]
  GI50: 18.8 nM
  TGI: 74.9 nM
[43]
  GI50: 311 nM
  TGI: 1390 nM
[44]
  GI50: 323 nM
  TGI: 1280 nM
[45]
  GI50: 263 nM
  TGI: 3.77 µM
[46]
  GI50: 238 nM
  TGI: 2090 nM
[47]
  GI50: < 10 nM
  TGI: 241 nM
[48]
  GI50: 242 nM
  TGI: 1130 nM
[49]
  GI50: 402 nM
  TGI: 1720 nM
[50]
  GI50: 1450 nM
  TGI: 3.31 µM
[51]
  GI50: 385 nM
  TGI: 2550 nM
[52]
  GI50: 220 nM
  TGI: 928 nM
[53]
  GI50: 275 nM
  TGI: 1460 nM
[54]
  GI50: 318 nM
  TGI: 1830 nM
[55]
  GI50: 178 nM
  TGI: 603 nM
